Experiments:
HCV replicon genotype 1a = test: Cell-based HCV replicon assay (TaqMan-based), genotype 1a; conditions: Hepatitis C virus, 72 h, HCV replicon cells, replicon RNA by real time PCR (TaqMan) on day 3
Method: (§1) Measurement of inhibition by compounds was performed using the HCV replicon system. Several different replicons encoding different HCV genotypes or mutations were used. In addition, potency measurements were made using different formats of the replicon assay, including different ways of measurements and different plating formats. See Jan M. Vrolijk et al., A replicons-based bioassay for the measurement of interferons in patients with chronic hepatitis C, 110 J. VIROLOGICAL METHODS 201 (2003); Steven S. Carroll et al., Inhibition of Hepatitis C Virus RNA Replication by 2′-Modified Nucleoside Analogs, 278(14) J. BIOLOGICAL CHEMISTRY 11979 (2003). However, the underlying principles are common to all of these determinations, and are outlined below.
(§2) TaqMan®-Based Assay Protocol: Compounds 1, 2 and 3 were assayed for cell-based anti-HCV activity by the following protocol. Replicon cells were seeded at 5000 cells/well in 96-well collagen I-coated Nunc plates in the presence of the test compound. Various concentrations of test compound, typically in 10 serial 2-fold dilutions, were added to the assay mixture, with the starting concentration ranging from 250 μM to 1 μM. The final concentration of DMSO was 0.5%, fetal bovine serum was 5%, in the assay media. Cells were harvested on day 3 by the addition of 1× cell lysis buffer (Ambion cat #8721). The replicon RNA level was measured using real time PCR (TaqMan® assay). The amplicon was located in 5B. The PCR primers were: 5B.2F, ATGGACAGGCGCCCTGA (SEQ. ID NO. 1); 5B.2R, […] (SEQ. ID NO. 2); the probe sequence was FAM-labeled CACGCCATGCGCTGCGG (SEQ. ID NO. 3). GAPDH RNA was used as endogenous control and was amplified in the same reaction as NS5B (multiplex PCR) using primers and VIC-labeled probe recommended by the manufacturer (PE Applied Biosystem). […] Alternatively, to quantitate the absolute amount of replicon RNA, a standard curve was established by including serially diluted T7 transcripts of replicon RNA in the Taqman assay. […]

HCV replicon genotype 1b = test: Cell-based HCV replicon assay (TaqMan-based), genotype 1b; conditions: Hepatitis C virus, 72 h, HCV replicon cells, replicon RNA by real time PCR (TaqMan) on day 3
Method: as §1, §2

HCV replicon genotype 2a = test: Cell-based HCV replicon assay (TaqMan-based), genotype 2a; conditions: Hepatitis C virus, 72 h, HCV replicon cells, replicon RNA by real time PCR (TaqMan) on day 3
Method: as §1, §2

HCV replicon genotype 3a = test: Cell-based HCV replicon assay (TaqMan-based), genotype 3a; conditions: Hepatitis C virus, 72 h, read-out: Genotype EC50 (nM) 3a
Method: as §1, §2

Row | Compound | EC50 (HCV replicon genotype 1a) [nM] | EC50 (HCV replicon genotype 1b) [nM] | EC50 (HCV replicon genotype 2a) [nM] | EC50 (HCV replicon genotype 3a) [nM]
1 | COC(=O)N[C@H](C(=O)N1CCC[C@H]1c1ncc(-c2ccc3c(c2)-c2ccc(-c4cnc([C@@H]5CCCN5C(=O)[C@@H](NC(=O)OC)C(C)C)[nH]4)cc2-3)[nH]1)C(C)C [Compound 1] | 0.03 | 0.007 | < 0.019 | < 0.19
2 | COC(=O)N[C@H](C(=O)N1C(c2ncc(-c3ccc4c(c3)-c3ccc(-c5cnc([C@@H]6[C@H]7CC[C@H](C7)N6C(=O)[C@@H](NC(=O)OC)C(C)C)[nH]5)cc3-4)[nH]2)[C@H]2CC[C@@H]1C2)C(C)C (stereo partly drawn) [Compound 2] | 0.52 | 0.005 | < 0.019 | < 0.19
3 | COC(=O)N[C@H](C(=O)N1CC(F)(F)C[C@H]1c1ncc(-c2ccc3c(c2)-c2ccc(-c4cnc([C@@H]5CC(F)(F)CN5C(=O)[C@@H](NC(=O)OC)C(C)C)[nH]4)cc2-3)[nH]1)C(C)C [Compound 3] | 0.05 | 0.003 | < 0.019 | 0.022
